US9216166B2, “Anti-microbial photodynamic therapy” (Biolitec Pharma Marketing, Ltd, priority 2006, dated 2015)

What was measured:
Assay type in all cases: cell-based
[1] = tested on: Gram-positive and Gram-negative bacteria; assay: Photodynamic inactivation of bacterial cell suspension using photosensitizers 1, 3a-e (CFU/ml after 665 nm laser irradiation); conditions: in the presence of blood (PBS with 10% human blood), 30 min incubation, about 100 J/cm^2, FIG. 2
Method: In the preferred embodiment, the antibacterial treatment includes the administration of photosensitizers to an environment containing bacteria and is allowed to incubate for a sufficient period of time thus providing accumulation of the photosensitizer into the bacterial cells. The incubation time varies depending on many factors. In this experiment it is incubated for 30 min before being irradiated with 665 nm laser at 100 J/cm^2 to initiate photodestruction of bacterial cells. The photosensitizer can be administered either by systemic application, or local injection in the affected area. For infection on or near the skin it can be administered topically.
The organisms used in our studies were three members of the microflora of wounds: Staphylococcus aureus DSM1104, Gram-positive; Escherichia coli DSM8698, Gram-negative; Pseudomonas aeruginosa DSM1117, Gram-negative.
Cultured cells are suspended in sterile phosphate-buffered saline (PBS) or sterile PBS supplemented with 10% sterile horse blood serum, 10% human plasma or 10% human blood respectively. The final OD (Optical Density) at 600 nm, 1 cm in all cases was 0.03. The bacterial suspensions are placed into sterile black well plates with clear bottoms. […]

Escherichia coli DSM8698 = assay: Photodynamic inactivation of Escherichia coli with Safranin O (FIG. 1C); conditions: compared with Staphylococcus aureus
From the text: (§1) One of the major problems for the use of anti-microbial PDT is a blocking action of the components of the blood whose presence decreases the activity of photosensitizers.
(§2) The antibacterial effect strongly depends on the kind of bacterial cells.
(§3) FIG. 1, Graph showing photodynamic inactivation of Staphylococcus aureus DSM1104 (FIG. 1A), Pseudomonas aeruginosa DSM1 117 (FIG. 1B), and Escherichia coli DSM8698 (FIG. 1C) by treatment with Safranin O as a photo sensitizer.

[2] = tested on: Staphylococcus aureus, Pseudomonas aeruginosa and Escherichia coli; assay: Photodynamic inactivation of bacteria with Safranin O (FIG. 1)
From the text: as §1, §2, §3

[3] = tested on: Staphylococcus aureus DSM1104; assay: Photodynamic inactivation of Staphylococcus aureus with Safranin O (FIG. 1A)
From the text: as §1, §2, §3

[4] = tested on: Pseudomonas aeruginosa DSM1117; assay: Photodynamic inactivation of Pseudomonas aeruginosa with Safranin O (FIG. 1B)
From the text: as §1, §2, §3

| Structure (SMILES) | photodynamic activity against Gram-positive and Gram-negative bacteria [1] | susceptibility of Gram-negative cells of Escherichia coli to killing by PDT (Escherichia coli DSM8698) | bactericidal photodynamic activity ([2]; in PBS buffer) | change of bactericidal photodynamic activity ([2]; when blood serum or blood is added) | killing of Gram-positive cells of Staphylococcus aureus by PDT [3] | effect of added serum, plasma or blood on photodynamic activity against Pseudomonas aeruginosa ([4]; addition of 10% of horse serum or human plasma or whole blood) | susceptibility of Gram-negative cells of Pseudomonas aeruginosa to killing by PDT ([4]; compared with Staphylococcus aureus, FIG. 1) |
| --- | --- | --- | --- | --- | --- | --- | --- |
| CCC1=C(C)c2cc3[nH]c(cc4nc(c5c6[nH]c(cc1n2)c(C)c6C(=O)C5)[C@@H](CCC(=O)O)C4C)c(C)c3CC (stereo partly drawn) [compound 1, meso pyropheophorbide-a] | not active |  |  |  |  |  |  |
| Cc1cc2nc3cc(C)c(N)cc3[n+](-c3ccccc3)c2cc1N.[Cl-] [Safranin O] |  | more resistant to killing by PDT | high bactericidal photodynamic activity | decreased remarkably | could be killed sufficiently | practically block the photodynamic activity | more resistant to killing by PDT |
